# From patent US20210338656A1, “IMMUNOSTIMULATORY AGENTS IN COMBINATION WITH ANGIOGENESIS INHIBITORS” (Alkermes Pharma Ireland Limited, priority 2020, published 2021)
# System: gene expression in MC38 tumors
# Assay: RNA-Seq gene expression in MC38 tumors, Day 10
# Assay type: in vivo, mouse
# Description: On Day 10 spleens and tumors were collected and weighed from all animals in Groups 7 through 12 and weighed prior to processing. Tissues from four animals in each group were processed to single cell suspensions for flow cytometry analysis at CRL-NC (described below). Tissues from the remaining six animals in each group were preserved in RNAlater, stored at −80° C.
# Tumors and spleens were dissected on the appropriate day of the study and were weighed and immediately placed in RNAlater Stabilizing Reagent to preserve the tissue and stored overnight at 4 deg C. The following day, the samples were removed from RNA later and snap frozen and placed at −80 deg C.
# Unless otherwise indicated, everything was done on ice and the materials were prechilled on ice. The tissues were homogenized in TRIzol in Precellys tissue grinding tubes. After homogenization, the TRIzol solutions were transferred to 1.5 ml tubes and spun for 5 min at 12,000×g to eliminate the insoluble material. The TRIzol solutions were then transferred to Phasemaker tubes. Chloroform was added, the tubes were capped, and shaken vigorously for 15 seconds. The samples were then incubated at room temperature for 2-15 minutes and centrifuged at 12,000×g for 5 minutes. The upper, aqueous phase was then transferred to a new tube and an equal volume of 70% ethanol was added and it was vortexed. The liquid was then transferred to Qiagen RNeasy columns and centrifuged at 8000×g. DNAse was added to each tube to eliminate any residual DNA. The columns were then washed and eluted as directed by the kit. The RNA concentrations were determined using a Qubit.
# Libraries were prepared for sequencing by using the Mouse Transcriptome Ion AmpliSeq Library Preparation on the Ion Chef System as directed by the manufacturer. Eight samples of purified RNA and 8 unique IonCode molecular barcodes were added to a 96 well plate and were prepared at a time. After the libraries were prepared, they were templated and loaded onto an Ion Torrent 540 chip using the Ion 540 Chef Kit from ThermoFisher. The 540 chips were then loaded into a Gene Studio S5 sequencer and sequenced.
# Raw sequencing data was processed by Torrent Suite (v5.8.0) software that came with the Gene Studio sequencer (ThermoFisher). For each sample, this program summarized gene expression in a CHP file. The CHP files were then loaded into the Transcriptome Analysis Console (TAC) program (ThermoFisher).
# [1] = T cell signaling gene, MC38 tumors Day 10 RNA-Seq, lucitanib 10 mg/kg po, SEQ ID NO. 2 3 mg/kg sc
# [2] = Type I/II interferon pathway gene, MC38 tumors Day 10 RNA-Seq, lucitanib 10 mg/kg po, SEQ ID NO. 2 3 mg/kg sc
# [3] = antigen presentation gene, MC38 tumors Day 10 RNA-Seq, lucitanib 10 mg/kg po, SEQ ID NO. 2 3 mg/kg sc
smiles,measurement,setting,value
"CNC(=O)c1cccc2cc(Oc3ccnc4cc(OCC5(N)CC5)c(OC)cc34)ccc12 [Lucitanib, 6-(7-((1-Aminocyclopropyl)-methoxy)-6-methoxyquinolin-4-yloxy)-N-methyl-1-naphthamide]",Cd3e mean expression value relative to vehicle group,[1],2.49
same,Cd4 mean expression value relative to vehicle group,[1],2.67
same,Cd8a mean expression value relative to vehicle group,[1],2.03
same,Cd8b1 mean expression value relative to vehicle group,[1],3.57
same,Cd28 mean expression value relative to vehicle group,[1],5.49
same,Cd247 mean expression value relative to vehicle group,[1],1.44
same,Cd3d mean expression value relative to vehicle group,[1],3.14
same,Ctla4 mean expression value relative to vehicle group,[1],4.10
same,H2-Aa mean expression value relative to vehicle group,[1],1.59
same,H2-Ab1 mean expression value relative to vehicle group,[1],1.12
same,H2-Eb1 mean expression value relative to vehicle group,[1],1.66
same,Icos mean expression value relative to vehicle group,[1],6.03
same,Ifng mean expression value relative to vehicle group,[1],2.74
same,Il2 mean expression value relative to vehicle group,[1],0.60
same,Lck mean expression value relative to vehicle group,[1],1.36
same,Lcp2 mean expression value relative to vehicle group,[1],0.40
same,Nfatc2 mean expression value relative to vehicle group,[1],0.34
same,Pdcd1 mean expression value relative to vehicle group,[1],0.75
same,Ptpn22 mean expression value relative to vehicle group,[1],1.16
same,Ptprc mean expression value relative to vehicle group,[1],2.25
same,Zap70 mean expression value relative to vehicle group,[1],1.46
same,B2m mean expression value relative to vehicle group,[2],0.32
same,Bst2 mean expression value relative to vehicle group,[2],0.75
same,Cd44 mean expression value relative to vehicle group,[2],−0.26
same,Ciita mean expression value relative to vehicle group,[2],0.62
same,Fcgr1 mean expression value relative to vehicle group,[2],1.56
same,Gm10499 mean expression value relative to vehicle group,[2],0.04
same,H2-Aa mean expression value relative to vehicle group,[2],1.59
same,H2-Ab1 mean expression value relative to vehicle group,[2],1.12
same,H2-Eb1 mean expression value relative to vehicle group,[2],1.66
same,H2-K1 mean expression value relative to vehicle group,[2],0.26
same,H2-Q10 mean expression value relative to vehicle group,[2],0.32
same,Icam1 mean expression value relative to vehicle group,[2],0.43
same,Ifi35 mean expression value relative to vehicle group,[2],0.62
same,Ifit2 mean expression value relative to vehicle group,[2],0.25
same,Ifitm1 mean expression value relative to vehicle group,[2],0.38
same,Ifna2 mean expression value relative to vehicle group,[2],0
same,Ifnar1 mean expression value relative to vehicle group,[2],−0.01
same,Ifnar2 mean expression value relative to vehicle group,[2],0.39
same,Ifnb1 mean expression value relative to vehicle group,[2],0.12
same,Ifng mean expression value relative to vehicle group,[2],2.74
same,Ifngr1 mean expression value relative to vehicle group,[2],0.84
same,Irf1 mean expression value relative to vehicle group,[2],0.3
same,Irf4 mean expression value relative to vehicle group,[2],1.23
same,Irf5 mean expression value relative to vehicle group,[2],0.02
same,Irf8 mean expression value relative to vehicle group,[2],0.38
same,Mx1 mean expression value relative to vehicle group,[2],1.14
same,Ncam1 mean expression value relative to vehicle group,[2],0.14
same,Pml mean expression value relative to vehicle group,[2],0.19
same,Ptpn6 mean expression value relative to vehicle group,[2],0.25
same,Socs3 mean expression value relative to vehicle group,[2],−0.24
same,Tyk2 mean expression value relative to vehicle group,[2],−0.16
same,Vcam1 mean expression value relative to vehicle group,[2],0.52
same,B2m mean expression value relative to vehicle group,[3],0.32
same,Btk mean expression value relative to vehicle group,[3],0.42
same,Cd14 mean expression value relative to vehicle group,[3],0.26
same,Cd36 mean expression value relative to vehicle group,[3],4.37
same,Cd74 mean expression value relative to vehicle group,[3],1.18
same,Ctsc mean expression value relative to vehicle group,[3],0.36
same,Ctss mean expression value relative to vehicle group,[3],2.29
same,Cybb mean expression value relative to vehicle group,[3],1.66
same,Fcgr1 mean expression value relative to vehicle group,[3],1.56
same,H2-Aa mean expression value relative to vehicle group,[3],1.59
same,H2-Ab1 mean expression value relative to vehicle group,[3],1.12
same,H2-DMa mean expression value relative to vehicle group,[3],1.18
same,H2-DMb2 mean expression value relative to vehicle group,[3],0.84
same,H2-Ea-ps mean expression value relative to vehicle group,[3],0
same,H2-Eb1 mean expression value relative to vehicle group,[3],1.66
same,H2-K1 mean expression value relative to vehicle group,[3],0.26
same,H2-Ob mean expression value relative to vehicle group,[3],2.19
same,H2-Q10 mean expression value relative to vehicle group,[3],0.32
same,Ly96 mean expression value relative to vehicle group,[3],0.58
same,Ncf4 mean expression value relative to vehicle group,[3],0.62
same,Psmb9 mean expression value relative to vehicle group,[3],0.6
same,Tap1 mean expression value relative to vehicle group,[3],0.51
same,Tlr1 mean expression value relative to vehicle group,[3],0.51
same,Tlr2 mean expression value relative to vehicle group,[3],0.12
same,Tlr4 mean expression value relative to vehicle group,[3],1.1
same,"Esm1 expression, a target of VEGF signaling",tumors,decrease
same,"expression of genes associated with cytotoxic immune cell function, T cell activation, and antigen presentation",tumors,Increased expression
